The results in this text go back to US10695334B2, “Heteroaromatic carboxamide derivatives as plasma kallikrein inhibitors” (Boehringer Ingelheim International GmbH, priority 2018, dated 2020).

Common to all, as to assay type: biochemical
Test [1] addresses T1, Human PKK (Homo sapiens (Human), UniProt P03952). As to the kind of experiment: Inhibition of PKK, endpoint assay (human PKK). To be noted: substrate H-Pro-Phe-Arg-AMC, 1 h room temperature. On the procedure:
Subsequently, PPACK II (Calbiochem) was added as a stop solution to achieve a final concentration of 1 μM and fluorescence was measured using an Envision Reader (PerkinElmer) with the wavelength excitation setting of 355 nm and the wavelength emission setting of 460 nm.

Test [2] has as its target PKK in kaolin activated human platelet poor plasma (Homo sapiens (Human), UniProt P03952). The test is described as follows: Inhibition of PKK in kaolin activated human PPP. Particulars: global fit over 25, 75, 250, 750 μg/mL kaolin. On the procedure:
Platelet poor plasma (PPP) obtained from human wholeblood, anticoagulated with Na-Citrat, was incubated with various concentrations of the test compound together with either 25, 75, 250, or 750 μg/mL kaolin in assay buffer for 20 min at 37° C. such that for each kaolin dose used a concentration response was obtained for the test compound.

Test [3] has as its target T1, Human PKK. The test is described as follows: Inhibition of PKK (Ki), kinetic assay. Particulars: 24° C., IC50 corrected for KM. The protocol:
Measurements were performed in a kinetic interval every 2nd minute for 16 min using a Spectramax M5 (Molecular Devices) with the following settings of the wavelength excitation of 350 nm and wavelength emission of 450 nm. The number of the compound corresponds to the number of the Example in the experimental section.
The pIC50 values were then fitted using a four-parametric fitting procedure using GraphPad Prism (version 6; GraphPad Software, Inc.).
Where the IC50 is in molar and the KM value in mM.

The target in another test is human TK1 (Homo sapiens (Human), UniProt P06870). As to the kind of experiment: Inhibition of TK1 (Ki). To be noted: column head prints IC50, text above the table says Ki values. A digest of the protocol:
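Trypsin-activated human TK1 (31.25 nM or 1 U/mL) incubated at 24 °C with 0.1 mM H-Pro-Phe-Arg-AMC and compound in pH 7.8 Tris/NaCl buffer with 0.1% BSA, 1% DMSO; fluorescence read kinetically over 16 min. IC50 from Vmax (2-12 min) four-parameter fit, converted to Ki using substrate KM.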

Chain of human TK1 (P06870 25-262): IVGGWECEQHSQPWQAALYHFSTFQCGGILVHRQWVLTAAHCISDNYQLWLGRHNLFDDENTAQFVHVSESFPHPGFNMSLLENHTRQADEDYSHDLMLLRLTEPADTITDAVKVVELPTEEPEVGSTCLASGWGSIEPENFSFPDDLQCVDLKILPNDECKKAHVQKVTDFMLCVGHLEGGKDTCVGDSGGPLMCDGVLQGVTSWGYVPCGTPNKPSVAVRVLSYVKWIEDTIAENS
Chain of PKK in kaolin activated human platelet poor plasma (P03952 391-638): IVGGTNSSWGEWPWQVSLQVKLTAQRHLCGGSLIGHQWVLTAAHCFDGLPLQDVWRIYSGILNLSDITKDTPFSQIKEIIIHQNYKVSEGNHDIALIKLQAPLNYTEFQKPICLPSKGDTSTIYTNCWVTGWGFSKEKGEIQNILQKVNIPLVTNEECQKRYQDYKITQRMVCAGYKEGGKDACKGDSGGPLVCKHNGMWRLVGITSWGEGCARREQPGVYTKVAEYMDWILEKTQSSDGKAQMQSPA
Chain of PKK in kaolin activated human platelet poor plasma (P03952 20-390 partner): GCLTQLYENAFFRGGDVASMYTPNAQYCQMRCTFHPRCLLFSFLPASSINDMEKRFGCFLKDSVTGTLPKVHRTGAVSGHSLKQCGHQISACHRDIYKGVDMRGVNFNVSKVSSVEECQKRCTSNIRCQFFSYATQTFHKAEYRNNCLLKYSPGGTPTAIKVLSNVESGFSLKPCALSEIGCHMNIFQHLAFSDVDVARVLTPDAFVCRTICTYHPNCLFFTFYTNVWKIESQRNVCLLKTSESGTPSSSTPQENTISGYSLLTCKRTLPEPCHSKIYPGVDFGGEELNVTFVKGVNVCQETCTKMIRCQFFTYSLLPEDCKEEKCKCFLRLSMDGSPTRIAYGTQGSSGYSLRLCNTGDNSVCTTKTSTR
T1 sequence (P03952 391-638): as the sequence (P03952 391-638) above
T1 sequence (P03952 20-390 partner): as the sequence (P03952 20-390 partner) above

As to `Cc1nc(N2CC3CC3C2)ncc1Cn1cc(C(=O)N[C@@H]2CCc3c(C)n[nH]c32)nn1` (stereo partly drawn) [Example 87, 1-[(2-{3-Azabicyclo[3.1.0]hexan-3-yl}-4-methylpyrimidin-5-yl)methyl]-N-[(6R)-3-methyl-1H,4H,5H,6H-cyclopenta[c]pyrazol-6-yl]-1H-1,2,3-triazole-4-carboxamide], the IC50 on Human PKK [1] was 2 nM; on human TK1 it was > 10000 nM. In test [2], the IC90 is 1170 nM. This compound also had a Ki at Human PKK [3] of 1 nM.
For `Cc1nc(N2CC3CC3C2)ccc1Cn1cc(C(=O)N[C@@H]2CCc3c2n[nH]c3C)nc1C1CC1` (stereo partly drawn) [Example 96, 1-[(6-{3-Azabicyclo[3.1.0]hexan-3-yl}-2-methyl-pyridin-3-yl)methyl]-2-cyclopropyl-N-[(6R)-3-methyl-2H,4H,5H,6H-cyclopenta[c]pyrazol-6-yl]-1H-imidazole-4-carboxamide] the same measures were 2 nM, > 10000 nM, 781 nM and 1 nM.
As to `Cc1nc(N2CC3CC3C2)ccc1Cn1cc(C(=O)N[C@@H]2CCc3c2n[nH]c3C)nc1C` (stereo partly drawn) [Example 97, 1-[(6-(3-Azabicyclo[3.1.0]hexan-3-yl}-2-methyl-pyridin-3-yl)methyl]-2-methyl-N-[(6R)-3-methyl-2H,4H,5H,6H-cyclopenta[c]pyrazol-6-yl]-1H-imidazole-4-carboxamide], the results for the IC50 against Human PKK [1] and against human TK1 were 2 nM and > 10000 nM, respectively. In test [2], the 90% effect concentration (IC90) came out at 302 nM. Further, the affinity on Human PKK [3] corresponds to a Ki of 1 nM.
For `Cc1nc(N2CC3CC3C2)ccc1Cn1cc(C(=O)N[C@@H]2CCc3c2n[nH]c3C)nc1C(F)(F)F` (stereo partly drawn) [Example 98, 1-[(6-{3-Azabicyclo[3.1.0]hexan-3-yl}-2-methyl-pyridin-3-yl)methyl]-N-[(6R)-3-methyl-2H,4H,5H,6H-cyclopenta[c]pyrazol-6-yl]-2-(trifluoromethyl)-1H-imidazole-4-carboxamide] the same measures were 5 nM, > 10000 nM, 3140 nM and 6 nM.
On to `Cc1nc(N2C[C@@H]3[C@H](C)[C@@H]3C2)ccc1Cn1cnc(C(=O)N[C@@H]2CCc3c2n[nH]c3C)c1` [Example 100, N-[(6R)-3-Methyl-2H,4H,5H,6H-cyclopenta[c]-pyrazol-6-yl]-1-({2-methyl-6-[(1R,5S,6R)-6-methyl-3-azabicyclo[3.1.0]hexan-3-yl]pyridin-3-yl}methyl)-1H-imidazole-4-carboxamide], for which the results for the IC50 against Human PKK [1] and against human TK1 were 0.4 nM and > 10000 nM, respectively. Also, the concentration for an effect of 90% (IC90) in test [2] is 303 nM. The affinity at Human PKK [3] corresponds to a Ki of 0.8 nM.
For `Cc1nc(N2C[C@@H]3[C@H](C)[C@@H]3C2)ncc1Cn1cnc(C(=O)N[C@@H]2CCc3c2n[nH]c3C)c1` [Example 101, 1-({4-Methyl-2-[(1R,5S,6R)-6-methyl-3-azabicyclo[3.1.0]hexan-3-yl]pyrimidin-5-yl}methyl)-N-[(6R)-3-methyl-2H,4H,5H,6H-cyclopenta[c]-pyrazol-6-yl]-1H-imidazole-4-carboxamide] the same measures were 2 nM, > 10000 nM, 727 nM and 2 nM.
For `Cc1nc(N2CC3CC3C2)ccc1Cn1cc(C(=O)N[C@@H]2CCc3c2n[nH]c3C)nc1Cl` (stereo partly drawn) [Example 102, 1-[(6-{3-Azabicyclo[3.1.0]hexan-3-yl}-2-methyl-pyridin-3-yl)methyl]-2-chloro-N-[(6R)-3-methyl-2H,4H,5H,6H-cyclopenta[c]pyrazol-6-yl]-1H-imidazole-4-carboxamide] the same measures were 1 nM, > 10000 nM, 5480 nM and 4 nM.
For `Cc1[nH]nc2c1CC[C@H]2NC(=O)c1cn(Cc2ccc(N3CC4CC4C3)nc2)cn1` (stereo partly drawn) [Example 103, 1-[(6-{3-Azabicyclo[3.1.0]hexan-3-yl}pyridin-3-yl)-methyl]-N-[(6R)-3-methyl-2H,4H,5H,6H-cyclo-penta[c]pyrazol-6-yl]-1H-imidazole-4-carboxamide], in that order: 2 nM, > 10000 nM, 416 nM and 3 nM.
As for `Cc1[nH]nc2c1CC[C@H]2NC(=O)c1cn(Cc2ccc(N3CC4(CC4)C3)nc2)cn1` [Example 104, 1-[(6-{5-Azaspiro[2.3]hexan-5-yl}pyridin-3-yl)-methyl]-N-[(6R)-3-methyl-2H,4H,5H,6H-cyclo-penta[c]pyrazol-6-yl]-1H-imidazole-4-carboxamide], the IC50 was 3 nM on Human PKK [1] and > 10000 nM against human TK1. Also, the IC90 in test [2] was 444 nM. Besides, the affinity on Human PKK [3], expressed as Ki, was 3 nM.
For the compound `Cc1nc(N2CC3CC3C2)ccc1Cn1cc(C(=O)N[C@@H]2CCc3c2n[nH]c3C)c2cc(C(=O)O)ccc21` (stereo partly drawn) [Example 108, 1-[(6-{3-Azabicyclo[3.1.0]hexan-3-yl}-2-methylpyridin-3-yl)methyl]-3-{[(6R)-3-methyl-2H,4H,5H,6H-cyclopenta[c]pyrazol-6-yl]carbamoyl}-1H-indole-5-carboxylic acid], the IC50 on Human PKK [1] is 1 nM; on human TK1, > 10000 nM. Further, the IC90 in test [2] stood at 776 nM. Moreover, the inhibition constant (Ki) on Human PKK [3] was determined as 6 nM.

One may read the IC50 as the concentration that gives 50% inhibition. A low value points to greater potency in that assay. In general, IC90 refers to the concentration needed for an effect of 90%. The Ki is a dissociation constant, usually derived from enzyme kinetics or from competition with a known ligand. A lower Ki goes with tighter binding.
